{"source": "patent US20250295627A1", "about": "(Leibniz-Institut Fuer Neurobiologie, priority 2022, published 2025)", "key": {"CREB": {"tested_on": "CREB", "format": "in vivo, mouse", "settings": "for CREB shutoff in dorsal hippocampal CA1: 50 mg/kg daily oral, 6 weeks", "description": "Animals were anesthetized with ketamine/xylazine (Medistar) and transcardially perfused with 0.9% saline followed by 4% PFA. The brains were post-fixed in 4% PFA in PBS overnight, followed by immersion in 0.5 M sucrose for 24 h and then 1M sucrose for another 1 to 2 days or until the brains were sunken down. The brains were snap-frozen and cut into 35 μm thick coronal cryosections (Leica CM3050S, Leica-Microsystems). The sections were blocked in a buffer (0.3% TX-100, 10% NGS in PBS) for 30 min at RT, and incubated with primary antibodies diluted in the blocking solution, overnight at 4° C. Secondary antibodies were applied for 2 h at RT. Sections were counterstained with DAPI and mounted in Mowiol 4-88 (Merck Chemicals). For the detection of Aβ, the heat-based antigen retrieval method was used. For anti-Aβ staining, following permeabilization, brain sections were immersed into […] sodium citrate solution (Fluka, pH=9) for 30 min at 80° C. Imaging of nuclear pCREB/CREB immunoreactivities in cryosections was performed using a Leica TCS SP5 system (Leica-Microsystems). Images were acquired sequentially with a HCX ApoL20×/1.0 water objective, optical zoom 4. Sections were imaged with constant laser/detector settings along the z-axis with 400 nm step in a 512×512 pixel format.\n. For TBA2.1 mice (both sexes), treatment started at the age of 4 weeks. The animals were group housed and force fed for 4 weeks. […] Treatment in 5×FAD male mice started at the age of 12 weeks. Here, animals were single housed right away and given a choice between voluntary and forced feeding. […] During the course of the 7th week of treatment, animals were either subjected to perfusion to obtain their brains for subsequent immunohistochemistry or they were culled to obtained native brains for electrophysiological recordings.\nAll quantifications were done within the distal CA1 region of the hippocampus. Fiji/ImageJ software (Schindelin et al., 2012) was used to calculate maximum intensity projection from five optical sections for each channel. CREB and pCREB immunoreactivity of every single nucleus in a 100 μm stretch was measured in arbitrary units of pixel intensity. ROls were defined based on NeuN and DAPI. The neuronal loss was quantified based on NeuN staining (the number of neurons/CA1 length). For the quantification of microglia and astrocytes the number of cells based on overlaid DAPI and Iba-1 or GFAP signal was quantified within the rectangular ROI. Aβ plaques were counted in the region where the neuronal loss was quantified."}, "TBA2.1 and 5×FAD mice": {"tested_on": "TBA2.1 and 5×FAD mice", "experiment": "Amyloid load (amyloid-β positive puncta) in CA1 after oral Nitarsone", "format": "in vivo, mouse", "description": "(§1) Animals were anesthetized with ketamine/xylazine (Medistar) and transcardially perfused with 0.9% saline followed by 4% PFA. The brains were post-fixed in 4% PFA in PBS overnight, followed by immersion in 0.5 M sucrose for 24 h and then 1M sucrose for another 1 to 2 days or until the brains were sunken down. The brains were snap-frozen and cut into 35 μm thick coronal cryosections (Leica CM3050S, Leica-Microsystems). The sections were blocked in a buffer (0.3% TX-100, 10% NGS in PBS) for 30 min at RT, and incubated with primary antibodies diluted in the blocking solution, overnight at 4° C. Secondary antibodies were applied for 2 h at RT. Sections were counterstained with DAPI and mounted in Mowiol 4-88 (Merck Chemicals). For the detection of Aβ, the heat-based antigen retrieval method was used. […]\n(§2) All quantifications were done within the distal CA1 region of the hippocampus. […] CREB and pCREB immunoreactivity of every single nucleus in a 100 μm stretch was measured in arbitrary units of pixel intensity. […] The neuronal loss was quantified based on NeuN staining (the number of neurons/CA1 length). For the quantification of microglia and astrocytes the number of cells based on overlaid DAPI and Iba-1 or GFAP signal was quantified within the rectangular ROI. Aβ plaques were counted in the region where the neuronal loss was quantified."}, "TBA2.1 mice": {"tested_on": "TBA2.1 mice", "experiment": "Neuronal loss (NeuN-positive cells) in CA1 after oral Nitarsone", "format": "in vivo, mouse", "settings": "versus vehicle-treated littermates", "description": "as §1, §2"}, "[1]": {"tested_on": "hippocampal primary neurons", "experiment": "Whole-cell voltage-clamp recording of mEPSCs", "format": "cell-based, rat"}, "hippocampal neurons": {"tested_on": "hippocampal neurons", "experiment": "Aβ-induced synapse loss (synaptophysin/Shank3 puncta) in dissociated hippocampal neurons", "format": "cell-based, rat", "settings": "5 μM Nitarsone, 48 h, 500 nM Aβ1-42", "description": "(§3) Hippocampal and cortical cultures were prepared from Wistar rat embryos (E18) of mixed sex as described previously (Spilker et al., 2016). Briefly, dissected were digested for 15 min with trypsin at 37° C. Neurons were plated on plastic 12-well dishes (Greiner) on glass coverslips coated with poly-L-lysine (Sigma-Aldrich) at a density of 60 000 cells/well in DMEM medium (Gibco, Thermo Fisher Scientific) supplemented with 10% FCS, 1× penicillin/streptomycin, and 2 mM glutamine. After 1 h incubation (at the 37° C., 5% CO2, 95% humidity) cells were kept in BrainPhys medium supplemented with 1% SM1 (Stemmcell Technologies), 0.5 mM Glutamine (Gibco) at 37° C., 5% CO2 and 95% humidity. […]\n(§4) For quantitation of nuclear staining intensity (pCREB or CREB) somatic regions were sequentially scanned using the 63× objective (Leica) in both: Leica TCS SP8-STED and Leica TCS SP5 systems. […] Unprocessed images were analysed using Fiji/ImageJ software (Schindelin et al., 2012). For visualization of the quantified channel a fire look-up table (LUT) was used. Synaptic density was quantified in secondary dendrites using Fiji/ImageJ (Schindelin et al., 2012). […] Intensity of the GluA1 channel was measured in ROIs defined by a Shank3 mask as a readout for surface AMPAR expression."}, "GluA1 AMPA-receptors": {"tested_on": "GluA1 AMPA-receptors", "experiment": "Synaptic surface expression of GluA1 AMPA-receptors in hippocampal neurons", "format": "cell-based, rat", "settings": "5 μM Nitarsone with 500 nM Aβ1-42, 48 h", "description": "as §3, §4"}}, "note": "Read-outs that look alike come from different tables or passages of the source.", "data": [{"smiles": "O=[N+]([O-])c1ccc([As](=O)(O)O)cc1", "note": "[Nitarsone, (4-nitrophenyl) arsonic acid]", "values": [{"measurement": "CREB shutoff in dorsal hippocampal CA1", "setting": "CREB; 5×FAD mice", "result": "effectively prevented CREB shutoff"}, {"measurement": "CREB immunoreactivity in NeuN positive cells in CA1", "setting": "CREB; 5×FAD mice, 18 weeks old", "result": "rescues the reduction of CREB immunoreactivity"}, {"measurement": "CREB shutoff in dorsal hippocampal CA1", "setting": "CREB; TBA2.1 mice", "result": "effectively prevented CREB shutoff"}, {"measurement": "CREB immunoreactivity in NeuN positive cells in CA1", "setting": "CREB; TBA2.1 mice, 11 weeks old", "result": "rescues the reduction of CREB immunoreactivity"}, {"measurement": "amyloid load", "setting": "TBA2.1 and 5×FAD mice; 5×FAD mice", "result": "did not detect any effects"}, {"measurement": "amyloid load", "setting": "TBA2.1 and 5×FAD mice; TBA2.1 mice", "result": "did not detect any effects"}, {"measurement": "early neuronal cell loss", "setting": "TBA2.1 mice", "result": "reduced"}, {"measurement": "mEPSC amplitude", "setting": "[1]; co-application of 5 µM Nitarsone with 500 nM Aβ1-42, 48 h", "result": "restored mEPSC amplitude"}, {"measurement": "mEPSC amplitude and frequency", "setting": "[1]; drug alone, 5 µM, 48 h", "result": "no effect on both measures"}, {"measurement": "Aβ-induced synapse loss", "setting": "hippocampal neurons", "result": "completely prevented"}, {"measurement": "downscaling of synaptic surface expression of GluA1 AMPA-receptors", "setting": "GluA1 AMPA-receptors", "result": "significantly attenuated"}]}]}
